Source: PubChem BioAssay (NCI)
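Growth conditions: 96-well plates. Treatment: test compound, 48 hours, 5 concentrations. Analysis: linear interpolation between bracketing concentrations; unreached endpoints set to highest concentration. Here, GI50 denotes the concentration required for 50% inhibition of growth. At the TGI there is no net growth.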

Experiments:
Experiment in all cases: NCI-60 cell line screen, 48 h
786-0 renal = system: 786-0 renal
A498 renal = system: A498 renal
A549 NSCLC = system: A549 NSCLC
ACHN renal = system: ACHN renal
BT-549 breast = system: BT-549 breast
CAKI-1 renal = system: CAKI-1 renal
CCRF-CEM leukemia = system: CCRF-CEM leukemia
COLO 205 colon = system: COLO 205 colon
DU-145 prostate = system: DU-145 prostate
EKVX NSCLC = system: EKVX NSCLC
HCC-2998 colon = system: HCC-2998 colon
HCT-116 colon = system: HCT-116 colon
HCT-15 colon = system: HCT-15 colon
HL-60(TB) leukemia = system: HL-60(TB) leukemia
HOP-62 NSCLC = system: HOP-62 NSCLC
HOP-92 NSCLC = system: HOP-92 NSCLC
HS 578T breast = system: HS 578T breast
HT29 colon = system: HT29 colon
IGROV1 ovarian = system: IGROV1 ovarian
K-562 leukemia = system: K-562 leukemia
KM12 colon = system: KM12 colon
M14 melanoma = system: M14 melanoma
MALME-3M melanoma = system: MALME-3M melanoma
MCF7 breast = system: MCF7 breast
MDA-MB-231 breast = system: MDA-MB-231 breast
MDA-MB-435 = system: MDA-MB-435
MDA-MB-468 breast = system: MDA-MB-468 breast
MOLT-4 leukemia = system: MOLT-4 leukemia
NCI-H226 lung = system: NCI-H226 lung
NCI-H23 lung = system: NCI-H23 lung
NCI-H460 lung = system: NCI-H460 lung
NCI-H522 lung = system: NCI-H522 lung
NCI/ADR-RES ovarian = system: NCI/ADR-RES ovarian
OVCAR-3 ovarian = system: OVCAR-3 ovarian
OVCAR-4 ovarian = system: OVCAR-4 ovarian
OVCAR-5 ovarian = system: OVCAR-5 ovarian
OVCAR-8 ovarian = system: OVCAR-8 ovarian
PC-3 prostate = system: PC-3 prostate
RPMI-8226 leukemia = system: RPMI-8226 leukemia
RXF 393 renal = system: RXF 393 renal
SF-268 CNS = system: SF-268 CNS
SF-295 CNS = system: SF-295 CNS
SF-539 CNS = system: SF-539 CNS
SK-MEL-2 melanoma = system: SK-MEL-2 melanoma
SK-MEL-28 melanoma = system: SK-MEL-28 melanoma
SK-MEL-5 melanoma = system: SK-MEL-5 melanoma
SK-OV-3 ovarian = system: SK-OV-3 ovarian
SN12C renal = system: SN12C renal
SNB-19 CNS = system: SNB-19 CNS
SNB-75 CNS = system: SNB-75 CNS
SR leukemia = system: SR leukemia
SW-620 colon = system: SW-620 colon
T-47D breast = system: T-47D breast
TK-10 renal = system: TK-10 renal
U251 CNS = system: U251 CNS
UACC-257 melanoma = system: UACC-257 melanoma
UACC-62 melanoma = system: UACC-62 melanoma
UO-31 renal = system: UO-31 renal

Question: What does the source list for `Cn1cc(-c2cc(N)n3nc(-c4cn(C)c5ccccc45)cc3n2)c2cc(F)ccc21`?
Answer: GI50 (786-0 renal): 1.51 µM; TGI (786-0 renal): 2.92 µM; GI50 (A498 renal): 14.6 µM; TGI (A498 renal): 29 µM; GI50 (A549 NSCLC): 2.17 µM; TGI (A549 NSCLC): 6.44 µM; GI50 (ACHN renal): 1.77 µM; TGI (ACHN renal): 3.45 µM; GI50 (BT-549 breast): 10.5 µM; TGI (BT-549 breast): 25.3 µM; GI50 (CAKI-1 renal): 1.84 µM; TGI (CAKI-1 renal): 3.98 µM; GI50 (CCRF-CEM leukemia): 3.19 µM; TGI (CCRF-CEM leukemia): 24.2 µM; GI50 (COLO 205 colon): 1.89 µM; TGI (COLO 205 colon): 3.57 µM; GI50 (DU-145 prostate): 4.15 µM; TGI (DU-145 prostate): 22.3 µM; GI50 (EKVX NSCLC): 3.02 µM; TGI (EKVX NSCLC): 15.7 µM; GI50 (HCC-2998 colon): 1.78 µM; TGI (HCC-2998 colon): 3.32 µM; GI50 (HCT-116 colon): 1.76 µM; TGI (HCT-116 colon): 3.18 µM; GI50 (HCT-15 colon): 1.79 µM; TGI (HCT-15 colon): 4.02 µM; GI50 (HL-60(TB) leukemia): 2.1 µM; TGI (HL-60(TB) leukemia): 5.11 µM; GI50 (HOP-62 NSCLC): 1.96 µM; TGI (HOP-62 NSCLC): 4.82 µM; GI50 (HOP-92 NSCLC): 2.06 µM; TGI (HOP-92 NSCLC): 4.2 µM; GI50 (HS 578T breast): 2.39 µM; TGI (HS 578T breast): 6.45 µM; GI50 (HT29 colon): 1.74 µM; TGI (HT29 colon): 3.34 µM; GI50 (IGROV1 ovarian): 2.19 µM; TGI (IGROV1 ovarian): 5.18 µM; GI50 (K-562 leukemia): 2.72 µM; TGI (K-562 leukemia): 7.52 µM; GI50 (KM12 colon): 2.47 µM; TGI (KM12 colon): 6.13 µM; GI50 (M14 melanoma): 1.83 µM; TGI (M14 melanoma): 3.52 µM; GI50 (MALME-3M melanoma): 1.72 µM; TGI (MALME-3M melanoma): 3.14 µM; GI50 (MCF7 breast): 1.77 µM; TGI (MCF7 breast): 3.95 µM; GI50 (MDA-MB-231 breast): 1.97 µM; TGI (MDA-MB-231 breast): 3.66 µM; GI50 (MDA-MB-435): 1.78 µM; TGI (MDA-MB-435): 3.33 µM; GI50 (MDA-MB-468 breast): 1.92 µM; TGI (MDA-MB-468 breast): 4.11 µM; GI50 (MOLT-4 leukemia): 2.44 µM; TGI (MOLT-4 leukemia): 7.25 µM; GI50 (NCI-H226 lung): 21.7 µM; TGI (NCI-H226 lung): 68.5 µM; GI50 (NCI-H23 lung): 2.08 µM; TGI (NCI-H23 lung): 4.78 µM; GI50 (NCI-H460 lung): 2.02 µM; TGI (NCI-H460 lung): 4.2 µM; GI50 (NCI-H522 lung): 1.65 µM; TGI (NCI-H522 lung): 3.42 µM; GI50 (NCI/ADR-RES ovarian): 2.41 µM; TGI (NCI/ADR-RES ovarian): 6.26 µM; GI50 (OVCAR-3 ovarian): 2.69 µM; TGI (OVCAR-3 ovarian): 6.53 µM; GI50 (OVCAR-4 ovarian): 2.49 µM; TGI (OVCAR-4 ovarian): 6.55 µM; GI50 (OVCAR-5 ovarian): 2.37 µM; TGI (OVCAR-5 ovarian): 6.49 µM; GI50 (OVCAR-8 ovarian): 1.97 µM; TGI (OVCAR-8 ovarian): 3.95 µM; GI50 (PC-3 prostate): 2.2 µM; TGI (PC-3 prostate): 5.54 µM; GI50 (RPMI-8226 leukemia): 2.93 µM; TGI (RPMI-8226 leukemia): 8.56 µM; GI50 (RXF 393 renal): 1.97 µM; TGI (RXF 393 renal): 3.72 µM; GI50 (SF-268 CNS): 3.35 µM; TGI (SF-268 CNS): 13.4 µM; GI50 (SF-295 CNS): 1.78 µM; TGI (SF-295 CNS): 3.68 µM; GI50 (SF-539 CNS): 1.76 µM; TGI (SF-539 CNS): 3.34 µM; GI50 (SK-MEL-2 melanoma): 1.82 µM; TGI (SK-MEL-2 melanoma): 3.63 µM; GI50 (SK-MEL-28 melanoma): 1.78 µM; TGI (SK-MEL-28 melanoma): 3.44 µM; GI50 (SK-MEL-5 melanoma): 1.87 µM; TGI (SK-MEL-5 melanoma): 3.89 µM; GI50 (SK-OV-3 ovarian): 3.32 µM; TGI (SK-OV-3 ovarian): 12.5 µM; GI50 (SN12C renal): 1.71 µM; TGI (SN12C renal): 3.14 µM; GI50 (SNB-19 CNS): 3.09 µM; TGI (SNB-19 CNS): 12.7 µM; GI50 (SNB-75 CNS): 12.9 µM; TGI (SNB-75 CNS): 28.6 µM; GI50 (SR leukemia): 2.16 µM; TGI (SR leukemia): 7.54 µM; GI50 (SW-620 colon): 2.01 µM; TGI (SW-620 colon): 4.05 µM; GI50 (T-47D breast): 2.63 µM; TGI (T-47D breast): 8.91 µM; GI50 (TK-10 renal): 2.01 µM; TGI (TK-10 renal): 8.26 µM; GI50 (U251 CNS): 1.82 µM; TGI (U251 CNS): 3.51 µM; GI50 (UACC-257 melanoma): 1.75 µM; TGI (UACC-257 melanoma): 3.39 µM; GI50 (UACC-62 melanoma): 1.68 µM; TGI (UACC-62 melanoma): 3.09 µM; GI50 (UO-31 renal): 1.62 µM; TGI (UO-31 renal): 3.06 µM
